Target: recombinant human SYK (GST-hSYK fusion protein) (Homo sapiens, UniProt P43405)
Experiment: biochemical
[1] = rhSYK Activity (IC50), recombinant human GST-SYK 5 pM, ATP 25 μM, biotinylated substrate peptide 250 nM, HTRF, 10-dose titration

Description: Homogeneous Time-Resolved Fluorescence (HTRF) Assay for the Recombinant Human SYK Enzyme:

`Cc1cc(Nc2nccc(C(F)(F)F)n2)cc(-c2cnc(CNC(C)(CO)CO)s2)c1` [Example 88A-14] gave an IC50 [1] of under 0.1 µM.

Compound `Cc1cc(Nc2nccc(C(F)(F)F)n2)cc(-c2cnc(C3(O)CCCN(C(=O)C4CC4)CC3)s2)c1` (stereo not drawn) [Example 54D-10] has an IC50 (rhSYK Activity, Table 54D) of under 0.1 µM.

`Cc1cc(Nc2nccc(C(F)(F)F)n2)cc(-c2cnc(C3(O)CCN(CCO)C3)s2)c1` (stereo not drawn) [54B-19] gave an IC50 (rhSYK Activity, Table 54B) of under 0.1 µM.

Compound `Cc1cc(Nc2nccc(C(F)(F)F)n2)cc(-c2cnc(C(NC(N)=O)(C3CC3)C3CC3)s2)c1` [Example 64-10] has an IC50 (rhSYK Activity, Table 64, second part (structure)) of under 0.1 µM.

For `Cc1cc(Nc2nccc(N3CCCC(=O)NC3)n2)cc(-c2cnc(C3(O)CCC3)s2)c1` [Example 94C-1], the IC50 [1] was under 0.1 µM.

`COC(=O)c1cccc(N2CCC(O)(c3ncc(-c4cc(C)cc(Nc5nccc(C(F)(F)F)n5)c4)s3)C2)c1` (stereo not drawn) [54B-35] showed an IC50 (rhSYK Activity, Table 54B) of 0.1 to 1 µM.

`COC(=O)[C@H]1CC[C@](O)(c2ncc(-c3cc(C)cc(Nc4nccc(OC(C)C)n4)c3)s2)CC1(C)C` [Example 101-4] gave an IC50 [1] of under 0.1 µM.

Compound `Cc1cc(Nc2nccc(SC(C)C)n2)cc(-c2cnc(C3(O)CCC3)s2)c1` [Example 108A-43] has an IC50 (rhSYK Activity, Table 108A) of under 0.1 µM.

Work on `CCSc1ccnc(Nc2cc(C)cc(-c3cnc(C4(O)CCC4)s3)c2)n1` [Example 108A-40] yielded an IC50 (rhSYK Activity, Table 108A) of under 0.1 µM.

`Cc1cc(Nc2nccc(C)n2)cc(-c2cnc(C3(O)CCC(C(=O)O)CC3(C)C)s2)c1` (stereo not drawn) [Example 113A-92] showed an IC50 (rhSYK Activity, Table 113A) of under 0.1 µM.

For `Cc1cc(Nc2nccc(C(F)(F)F)n2)cc(-c2cnc(C3(O)CCN(C(=O)CC4CCCO4)CC3)s2)c1` (stereo not drawn) [Example 54A-42], the IC50 (RHSYK Activity, Table 54A) was under 0.1 µM.

For `Cc1cc(Nc2nccc(C(F)(F)F)n2)cc(-c2cnc(C3(O)CCCN(C(=O)CC(N)=O)CC3)s2)c1` (single isomer, unassigned) [Example 54D-20], the IC50 (rhSYK Activity, Table 54D) was under 0.1 µM.

For `Cc1cc(Nc2nccc(C(F)(F)F)n2)cc(-c2cnc(C3(O)CCN(C(=O)N(C)C)CC3)s2)c1` [Example 54A-15], the IC50 (RHSYK Activity, Table 54A) was under 0.1 µM.

`Cc1cc(Nc2nccc(C(F)(F)F)n2)cc(-c2cnc(C(C)(O)Cc3ccc(C(=O)O)cc3)s2)c1` (stereo not drawn) [Example 33D-18] showed an IC50 (rhSYK Activity, Table 33D) of under 0.1 µM.

With `COC(=O)C1CCC(O)(c2ncc(-c3cc(C)cc(Nc4nccc(C)n4)c3)s2)CC1C` (stereo not drawn) [Example 113A-9] the IC50 (rhSYK Activity, Table 113A) was 0.1 to 1 µM.

Compound `Cc1cc(Nc2nccc(C(F)(F)F)n2)cc(-c2cnc([C@]3(O)CC[C@H](C(=O)O)CC3)s2)c1` [Example 33A-8] has an IC50 (rhSYK Activity, Table 33-A) of under 0.1 µM.

`Cc1cc(Nc2nccc(C(F)(F)F)n2)cc(-c2cnc(C3(O)CCCN(C(=O)CC#N)CC3)s2)c1` (stereo not drawn) [Example 54D-9] was tested, and the IC50 (rhSYK Activity, Table 54D) was under 0.1 µM.

`Cc1cc(Nc2nccc(C)n2)cc(-c2cnc(C3(O)CCC(C(=O)O)CC3O)s2)c1` (stereo not drawn) [Example 113A-90] was tested, and the IC50 (rhSYK Activity, Table 113A) was under 0.1 µM.

With `Cc1cc(Nc2nccc(C(C)F)n2)cc(-c2cnc(C3(O)CCC(C(=O)OC(C)(C)C)CC3)s2)c1` (stereo not drawn) [116A-10] the IC50 (rhSYK Activity, Table 116A) was under 0.1 µM.

For `Cc1cc(Nc2nccc(C(F)(F)F)n2)cc(-c2cnc(C3(O)CCCN(C(=O)CC(=O)O)CC3)s2)c1` (stereo not drawn) [Example 54D-24], the IC50 (rhSYK Activity, Table 54D) was under 0.1 µM.

`Cc1cc(Nc2nccc(OC3CCC3)n2)cc(-c2cnc(C3(O)CCC3)s2)c1` [Example 94A-30] showed an IC50 [1] of under 0.1 µM.

`Cc1cc(Nc2ncc(F)c(OC3CCOC3)n2)cc(-c2cnc(C3(O)CCC3)s2)c1` (stereo not drawn) [Example 94A-6] gave an IC50 [1] of 0.1 to 1 µM.

For `CNC(=O)Nc1cc(Nc2nccc(C(F)(F)F)n2)cc(-c2cnc(C3(O)CCC3)s2)c1` [Example 19-3], the IC50 (rhSYK Activity, table of Examples 19-x) was under 0.1 µM.

`Cc1cc(Nc2nccc(C(F)(F)F)n2)cc(-c2cnc(C3(O)CC(C(=O)O)C3)s2)c1` (stereo not drawn) [Example 33B-1] gave an IC50 (rhSYK Activity, Table 33B) of under 0.1 µM.

`Cc1cc(Nc2nccc(C(F)(F)F)n2)cc(-c2cnc(C3(O)CCCN(C(=O)CCNC(N)=O)CC3)s2)c1` (stereo not drawn) [Example 54D-76] showed an IC50 (rhSYK Activity, Table 54D) of under 0.1 µM.

`Cc1cc(Nc2nccc(C(F)(F)F)n2)cc(-c2cnc(CNC3CCS(=O)(=O)C3)s2)c1` (stereo not drawn) [Example 88A-5] showed an IC50 [1] of under 0.1 µM.

Work on `Cc1cc(Nc2nccc(C(C)(O)C3CC3)n2)cc(-c2cnc(C3(O)CCC(C(=O)O)C(C)(C)C3)s2)c1` (single isomer, unassigned) [Example 100A-25] yielded an IC50 [1] of under 0.1 µM.

Work on `Nc1cc(Nc2nccc(OC3CNC3)n2)cc(-c2cnc(C3(O)CCC3)s2)c1` [Example 109-14] yielded an IC50 (rhSYK Activity, Table 109) of under 0.1 µM.

With `Cc1cc(Nc2nccc(C(F)(F)F)n2)cc(-c2cnc(CN3CCOC(CC(=O)O)C3)s2)c1` (stereo not drawn) [Example 88B-14] the IC50 [1] was under 0.1 µM.

`Cc1cc(Nc2nccc(C(F)(F)F)n2)cc(-c2cnc(-c3cccs3)s2)c1` [Example 114-5] was tested, and the IC50 [1] was 0.1 to 1 µM.

With `CCNC(=O)NCc1ncc(-c2cc(C)cc(Nc3nccc(C(F)(F)F)n3)c2)s1` [Example 88A-62] the IC50 [1] was under 0.1 µM.

In the case of `Cc1cc(Nc2nccc(C(F)(F)F)n2)cc(-c2cnc(C3(O)CCC(NC(=O)C(O)C(F)(F)F)CC3)s2)c1` (stereo not drawn) [Example 54E-30], the IC50 (rhSYK Activity, Table 54E) is reported as under 0.1 µM.

In the case of `Cc1cc(Nc2ncc(F)c(C3CC3)n2)cc(-c2cnc(C3(O)CCC(C(=O)O)C(C)(C)C3)s2)c1` (stereo not drawn) [Example 33A-40], the IC50 (rhSYK Activity, Table 33-A) is reported as under 0.1 µM.
